Assay results from patent publication US10131669B2, “Pyrazolopyrimidine compounds” (Pfizer Inc., priority 2014, dated 2018).
Structures can show the parent of a compound that is named as a salt. Where two headings read alike, the source gives them in different places.

Tests used:
Type in all cases: biochemical
[1] = target: T1, Human PDE4A3 (Homo sapiens, UniProt P27815); test: PDE4A3 Scintillation Proximity Assay (SPA), inhibition of enzyme activity; conditions: geometric mean of 2-7 determinations unless otherwise indicated (b: ≥8 determinations; c: single determination), 1 μM cAMP, 30 min at 25° C., read-out: Human PDE4A FL
T1 construct: His6 (N); FLAG (C); made in house; host or cells: insect cells (baculovirus, pFastBac)
T1 sequence (P27815 2-825 isoform P27815-6): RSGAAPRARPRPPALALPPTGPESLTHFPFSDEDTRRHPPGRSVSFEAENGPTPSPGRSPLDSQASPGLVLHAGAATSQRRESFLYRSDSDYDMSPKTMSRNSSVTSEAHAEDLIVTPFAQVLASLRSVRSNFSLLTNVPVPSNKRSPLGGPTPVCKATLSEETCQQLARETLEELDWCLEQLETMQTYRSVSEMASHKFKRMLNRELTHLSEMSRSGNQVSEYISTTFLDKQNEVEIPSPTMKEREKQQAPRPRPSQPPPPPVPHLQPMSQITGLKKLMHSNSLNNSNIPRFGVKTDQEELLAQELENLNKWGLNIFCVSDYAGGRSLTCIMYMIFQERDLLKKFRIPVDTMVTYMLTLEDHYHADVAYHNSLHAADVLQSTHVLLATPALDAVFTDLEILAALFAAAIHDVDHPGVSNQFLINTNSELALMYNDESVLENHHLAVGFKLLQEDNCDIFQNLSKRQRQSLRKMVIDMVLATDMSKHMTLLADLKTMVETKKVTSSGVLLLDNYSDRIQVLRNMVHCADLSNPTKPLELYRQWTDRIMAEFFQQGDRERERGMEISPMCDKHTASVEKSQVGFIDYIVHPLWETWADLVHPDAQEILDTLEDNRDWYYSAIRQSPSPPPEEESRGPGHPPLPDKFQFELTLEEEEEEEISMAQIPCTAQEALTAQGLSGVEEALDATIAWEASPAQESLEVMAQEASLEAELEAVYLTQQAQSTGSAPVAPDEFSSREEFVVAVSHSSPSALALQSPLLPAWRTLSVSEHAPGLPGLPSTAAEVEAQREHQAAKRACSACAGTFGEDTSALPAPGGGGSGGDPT
Procedure, shortened: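 Human PDE4A3 (aa 2–825, His6/FLAG-tagged, insect-cell expressed) at 80 pM hydrolyses 1 μM cAMP including 20 nM 3H-cAMP, ~20% conversion. Buffer is 50 mM Tris pH 7.5, 1.3 mM MgCl2, 0.01% Brij. Incubated 30 min at 25 °C with inhibitor range, stopped with yttrium silicate SPA beads, read after 8 h settling.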

[2] = target: T2, Human PDE4B1 (Homo sapiens, UniProt Q07343, S133E/S654A/S659A/S661A); test: PDE4B1 Scintillation Proximity Assay (SPA), inhibition of enzyme activity
T2 construct: His6 (N); thrombin cleavage site (N); made in house; host or cells: insect cells (baculovirus, pFastBac)
T2 sequence (Q07343 122-736 S133E/S654A/S659A/S661A): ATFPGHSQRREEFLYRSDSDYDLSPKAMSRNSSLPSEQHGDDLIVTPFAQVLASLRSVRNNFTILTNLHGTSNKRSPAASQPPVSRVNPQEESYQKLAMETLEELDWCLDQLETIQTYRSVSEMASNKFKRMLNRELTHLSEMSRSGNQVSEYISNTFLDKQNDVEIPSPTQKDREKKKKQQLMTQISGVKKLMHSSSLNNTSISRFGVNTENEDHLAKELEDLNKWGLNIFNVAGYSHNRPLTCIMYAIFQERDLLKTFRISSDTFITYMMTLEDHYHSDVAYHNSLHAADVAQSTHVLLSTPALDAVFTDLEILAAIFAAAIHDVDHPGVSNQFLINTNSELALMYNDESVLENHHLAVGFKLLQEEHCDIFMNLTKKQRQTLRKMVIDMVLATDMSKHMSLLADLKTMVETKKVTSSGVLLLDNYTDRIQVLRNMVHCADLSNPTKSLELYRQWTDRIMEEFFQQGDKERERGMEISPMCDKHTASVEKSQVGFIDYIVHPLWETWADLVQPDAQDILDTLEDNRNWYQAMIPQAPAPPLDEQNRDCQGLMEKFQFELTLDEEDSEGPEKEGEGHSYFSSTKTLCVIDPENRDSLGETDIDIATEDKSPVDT
Procedure, shortened: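 His-tagged human PDE4B1 expressed in insect cells and purified by Ni-NTA and Source 15Q was assayed in 50 mM Tris pH 7.5, 1.3 mM MgCl2, 0.01% Brij. The substrate was 1 μM cAMP with ³H-cAMP tracer, at about 20% conversion, for 30 min at 25 °C. Yttrium silicate SPA beads stopped the reaction; counts were read after 8 h settling.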

[3] = target: T3, Human PDE4C1 (Homo sapiens, UniProt Q08493); test: PDE4C1 Scintillation Proximity Assay (SPA), inhibition of enzyme activity; conditions: geometric mean of 2-7 determinations unless otherwise indicated (b: ≥8 determinations; c: single determination), 1 μM cAMP, 30 min at 25° C., read-out: Human PDE4C FL
T3 construct: His6 (N); FLAG (C); made in house; host or cells: insect cells (baculovirus, pFastBac)
T3 sequence (Q08493 2-712): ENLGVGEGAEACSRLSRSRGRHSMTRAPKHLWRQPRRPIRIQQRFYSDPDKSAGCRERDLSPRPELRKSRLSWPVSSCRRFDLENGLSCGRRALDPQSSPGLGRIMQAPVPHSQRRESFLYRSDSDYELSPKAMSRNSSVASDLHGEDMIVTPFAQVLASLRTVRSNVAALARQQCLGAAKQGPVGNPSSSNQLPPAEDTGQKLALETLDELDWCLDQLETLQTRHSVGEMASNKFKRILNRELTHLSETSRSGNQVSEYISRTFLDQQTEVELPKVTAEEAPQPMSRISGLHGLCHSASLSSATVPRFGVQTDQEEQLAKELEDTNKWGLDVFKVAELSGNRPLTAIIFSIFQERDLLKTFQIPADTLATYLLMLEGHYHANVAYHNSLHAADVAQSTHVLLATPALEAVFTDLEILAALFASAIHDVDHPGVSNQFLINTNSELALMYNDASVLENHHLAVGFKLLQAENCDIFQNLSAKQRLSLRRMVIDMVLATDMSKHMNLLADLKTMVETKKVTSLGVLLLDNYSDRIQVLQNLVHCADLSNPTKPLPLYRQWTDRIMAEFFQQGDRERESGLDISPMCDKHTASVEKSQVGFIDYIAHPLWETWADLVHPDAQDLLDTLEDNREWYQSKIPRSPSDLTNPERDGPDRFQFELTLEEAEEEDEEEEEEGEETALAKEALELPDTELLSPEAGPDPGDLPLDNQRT
Procedure, shortened: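 Human recombinant FLAG/His-purified PDE4C1 from insect cells at 40 pM, with 1 μM cAMP (3H-cAMP tracer) in Tris pH 7.5, 1.3 mM MgCl2, 0.01% Brij, ~20% substrate turnover. Incubation 30 min at 25° C with a range of inhibitor concentrations. Stopped with yttrium silicate SPA beads and read by scintillation after 8 h settling.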

[4] = target: T4, human PDE4D3 (Homo sapiens, UniProt Q08499); test: PDE4D3 Scintillation Proximity Assay (SPA), inhibition of enzyme activity
T4 construct: His6 (C); made in house; host or cells: insect cells (baculovirus, pFastBac)
T4 sequence (Q08499 186-808): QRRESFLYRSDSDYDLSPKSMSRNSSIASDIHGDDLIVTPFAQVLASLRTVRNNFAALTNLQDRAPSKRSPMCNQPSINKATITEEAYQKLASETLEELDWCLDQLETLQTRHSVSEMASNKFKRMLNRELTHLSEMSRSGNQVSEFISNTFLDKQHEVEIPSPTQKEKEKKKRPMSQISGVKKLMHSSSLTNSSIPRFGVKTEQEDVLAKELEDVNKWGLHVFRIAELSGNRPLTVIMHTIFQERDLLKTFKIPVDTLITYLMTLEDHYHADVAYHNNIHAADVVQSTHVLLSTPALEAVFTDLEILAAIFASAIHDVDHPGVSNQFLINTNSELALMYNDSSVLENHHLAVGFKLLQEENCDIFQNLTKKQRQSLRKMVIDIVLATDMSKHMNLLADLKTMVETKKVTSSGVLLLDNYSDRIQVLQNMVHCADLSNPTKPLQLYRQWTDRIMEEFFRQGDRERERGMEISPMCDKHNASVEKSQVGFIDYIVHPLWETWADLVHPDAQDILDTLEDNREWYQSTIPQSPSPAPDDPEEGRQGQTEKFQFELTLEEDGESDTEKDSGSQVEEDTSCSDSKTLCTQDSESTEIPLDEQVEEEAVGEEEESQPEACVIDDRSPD
Procedure, shortened: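 Recombinant enzyme from insect cells, Ni-NTA and Q Sepharose purified, used at 10 pM in 50 mM Tris pH 7.5, 1.3 mM MgCl2, 0.01% Brij. Substrate 1 μM cAMP with 3H-cAMP tracer, ~20% conversion, inhibitor range, 30 min at 25°C. Stopped with yttrium silicate SPA beads and scintillation read.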

[5] = geometric mean of 2-7 determinations unless otherwise indicated (b: ≥8 determinations; c: single determination), 1 μM cAMP, 30 min at 25° C., read-out: Human PDE4B FL, IC50
[6] = geometric mean of 2-7 determinations unless otherwise indicated (b: ≥8 determinations; c: single determination), 1 μM cAMP, 30 min at 25° C., read-out: Human PDE4D FL, IC50

IC50 [1] [nM]	IC50 [2, 5] [nM]	IC50 [3] [nM]	IC50 [4, 6] [nM]	SMILES	IC50 [2] [nM]	IC50 [4] [nM]
39.9	150	97.3	6880	CCNC(=O)c1nn2cccnc2c1-c1ccc(Cl)cc1C [Example 18, 3-(4-chloro-2-methylphenyl)-N-ethylpyrazolo[1,5-a]pyrimidine-2-carboxamide]	–	–
146	221	178	> 14400	O=C(NC1CC1)c1nn2cccnc2c1-c1ccc2ncoc2c1 [Example 43, 3-(1,3-benzoxazol-6-yl)-N-cyclopropylpyrazolo[1,5-a]pyrimidine-2-carboxamide]	–	–
190	1090	965	> 25200	O=C(Nc1ncccn1)c1nn2cccnc2c1-c1ccc(Cl)cc1 [Example 8, 3-(4-Chlorophenyl)-N-(pyrimidin-2-yl)pyrazolo[1,5-a]pyrimidine-2-carboxamide]	–	–
4.02	13.2	9.5	459	Cc1ccc(-c2c(C(=O)NC3CC3)nn3cc(F)cnc23)cc1F [Example 63, N-cyclopropyl-6-fluoro-3-(3-fluoro-4-methylphenyl)pyrazolo[1,5-a]pyrimidine-2-carboxamide]	–	–
14.7	54.5	44	979	N#Cc1cc(F)c(-c2c(C(=O)N3CCC3)nn3cccnc23)cc1F [Example 46, 4-[2-(azetidin-1-ylcarbonyl)pyrazolo[1,5-a]pyrimidin-3-yl]-2,5-difluorobenzonitrile]	–	–
120	138	449	> 12300	CC1CC1NC(=O)c1nn2cccnc2c1-c1ccc(Cl)cc1 (stereo not shown) [Example 34, 3-(4-chlorophenyl)-N-(2-methylcyclopropyl)pyrazolo[1,5-a]pyrimidine-2-carboxamide]	–	–
1110	1860	710	> 30000	CN(C(=O)c1nn2cccnc2c1-c1ccc(Cl)cc1)C1CC1 [Example 35, 3-(4-chlorophenyl)-N-cyclopropyl-N-methylpyrazolo[1,5-a]pyrimidine-2-carboxamide, hydrochloride salt]	–	–
3.31	16.8	32.9	261	N#Cc1ccc(-c2c(C(=O)N3CCC3)nn3cc(F)cnc23)cc1F [Example 68, 4-[2-(azetidin-1-ylcarbonyl)-6-fluoropyrazolo[1,5-a]pyrimidin-3-yl]-2-fluorobenzonitrile]	–	–
0.77	3.02	5.18	43	O=C(NC1CC1)c1nn2cc(F)cnc2c1-c1cc(F)c(Cl)cc1F [Example 72, 3-(4-chloro-2,5-difluorophenyl)-N-cyclopropyl-6-fluoropyrazolo[1,5-a]pyrimidine-2-carboxamide]	–	–
1.19	4.93	7.72	159	O=C(NC1CC1)c1nn2cc(F)cnc2c1-c1ccc(Cl)c(F)c1 [Example 59, 3-(4-chloro-3-fluorophenyl)-N-cyclopropyl-6-fluoropyrazolo[1,5-a]pyrimidine-2-carboxamide]	–	–
2	8	20	98	Cc1cc(Cl)c(F)cc1-c1c(C(=O)N2CCC2)nn2cccnc12 [Example 61, azetidin-1-yl[3-(4-chloro-5-fluoro-2-methylphenyl)pyrazolo[1,5-a]pyrimidin-2-yl]methanone]	–	–
25.3	96.9	42.9	5840	O=C(NC1CC1)c1nn2cccnc2c1-c1ccc(Cl)cc1 [Example 10, 3-(4-chlorophenyl)-N-cyclopropylpyrazolo[1,5-a]pyrimidine-2-carboxamide]	–	–
57	59	128	1160	O=C(NC1CC1)c1nn2cc(F)cnc2c1-c1ccc2ocnc2c1 [Example 65, 3-(1,3-benzoxazol-5-yl)-N-cyclopropyl-6-fluoropyrazolo[1,5-a]pyrimidine-2-carboxamide]	–	–
7.66	32	21.8	830	CCNC(=O)c1nn2cccnc2c1-c1ccc(Cl)c(F)c1 [Example 53, 3-(4-chloro-3-fluorophenyl)-N-ethylpyrazolo[1,5-a]pyrimidine-2-carboxamide]	–	–
64.5	67.4	111	10900	O=C(c1nn2cccnc2c1-c1ccc(Cl)cc1F)N1CCC1 [Example 20, azetidin-1-yl[3-(4-chloro-2-fluorophenyl)pyrazolo[1,5-a]pyrimidin-2-yl]methanone]	–	–
17.7	48.3	70.8	> 4870	CCNC(=O)c1nn2cccnc2c1-c1ccnc(OC(F)F)c1 [Example 50, 3-[2-(difluoromethoxy)pyridin-4-yl]-N-ethylpyrazolo[1,5-a]pyrimidine-2-carboxamide]	–	–
47.1	226	650	> 15500	O=C(NC1CC1)c1nn2cccnc2c1-c1ccc2ocnc2c1 [Example 60, 3-(1,3-benzoxazol-5-yl)-N-cyclopropylpyrazolo[1,5-a]pyrimidine-2-carboxamide]	–	–
167	236	76.4	> 16000	O=C(c1nn2cccnc2c1-c1cccc(Cl)c1)N1CCC1 [Example 48, azetidin-1-yl[3-(3-chlorophenyl)pyrazolo[1,5-a]pyrimidin-2-yl]methanone]	–	–
11.3	41.4	36.4	2110	CCNC(=O)c1nn2cccnc2c1-c1cc(F)c(Cl)cc1F [Example 19, 3-(4-chloro-2,5-difluorophenyl)-N-ethylpyrazolo[1,5-a]pyrimidine-2-carboxamide]	–	–
23.2	12.9	66.3	300	O=C(NC1CC1(F)F)c1nn2cccnc2c1-c1ccc(Cl)c(F)c1 (stereo not shown) [Example 39, 3-(4-chloro-3-fluorophenyl)-N-(2,2-difluorocyclopropyl)pyrazolo[1,5-a]pyrimidine-2-carboxamide]	–	–
17.9	52.7	84.2	> 9300	O=C(c1nn2cccnc2c1-c1ccc(Cl)cc1)N1CCC1 [Example 1, Azetidin-1-yl[3-(4-chlorophenyl)pyrazolo[1,5-a]pyrimidin-2-yl]methanone]	–	–
142	234	115	5930	CCNC(=O)c1nn2cccnc2c1-c1ccc(Cl)cc1 [Example 52, 3-(4-chlorophenyl)-N-ethylpyrazolo[1,5-a]pyrimidine-2-carboxamide]	–	–
167	273	124	8810	Cc1cc(C#N)c(F)cc1-c1c(C(=O)NC2CCC2)nn2cccnc12 [Example 22, 3-(4-cyano-5-fluoro-2-methylphenyl)-N-cyclobutylpyrazolo[1,5-a]pyrimidine-2-carboxamide]	–	–

SMILES	IC50 [1] [nM]	IC50 [2, 5] [nM]	IC50 [3] [nM]	IC50 [4, 6] [nM]	IC50 [2] [nM]	IC50 [4] [nM]
O=C(c1nn2cc(F)cnc2c1-c1ccc(Cl)cc1)N1CCC1 [Example 9, Azetidin-1-yl[3-(4-chlorophenyl)-6-fluoropyrazolo[1,5-a]pyrimidin-2-yl]methanone, Formate Salt]	16.7	–	55.3	–	34.4	3710
N#Cc1c(F)cc(-c2c(C(=O)N3CCC3)nn3cccnc23)cc1F [Example 62, 4-[2-(azetidin-1-ylcarbonyl)pyrazolo[1,5-a]pyrimidin-3-yl]-2,6-difluorobenzonitrile]	4.33	17.3	37.8	242	–	–
